In patent US5580552A, “7-glycosyloxybenzopyran derivative and antiallergic agent containing the derivative as active ingredient” (priority 1994, dated 1996):

Experiments:
[1] = system: contact dermatitis induced by picryl chloride; assay: Effect on contact dermatitis induced by picryl chloride in mice; type: in vivo; conditions: for inhibition in vivo at 50 mg/kg / Inhibition (%) against the increase of ear thickness: 50 mg/kg oral, 1 hour before and 16 hours after challenge, 24 hours after challenge
Protocol: Effect on contact dermatitis induced by picryl chloride in mice
The delayed type hypersensitization is inhibited by steroid drugs,but can not be effected by known anti-allergic agents. In the following, the method of the pharmacological test will be explained.
Method: Mice, shaved their abdominal skin on previous day, were immunized by applying 0.1 ml of acetone containing 7 mg of picryl chloride to the skin of the abdomen. 7 days after immunization, the thickness of the ear was measured with a dial thickness gauge, then mice were challenged by painting 5 μl of 1% picryl chloride olive oil solution to each side skin of left ear. 24 hours after challenge, the thickness of the left ear was measured again and the increase (%) of thickness was calculated according to equation 2. The compounds of the present invention (test compounds) suspended in 0.5% CMCNa were forcibly administered orally at a dose of 50 mg/kg at 1 hour before and 16 hours after challenge. As vehicle control group, only 0.5% CMCNa solution were administered orally, and as positive control group, Prednisolone, steroid hormone, and Tranilast were administered orally at the doses of 10 mg/kg and 100 mg/kg, respectively.
Increase (%)=(A-B)/B×100 (Equation 2)
A: thickness of the ear at 24 hours after challenge
B: thickness of the ear before challenge
Inhibition (%)=(C-D)/C×100 (equation 3)
C: The increase (%) in vehicle control group
D: The increase (%) in test compounds group or positive control group

[2] = system: homologous passive cutaneous anaphylaxis (PCA) reaction; assay: Effect on homologous passive cutaneous anaphylaxis (PCA) reaction in rats; type: in vivo, rats (male wistar); conditions: for inhibition in vivo at 50 mg/kg / Inhibition (%) of PCA reaction: 50 mg/kg oral, 1 hour before challenge (TABLE 2)
Protocol: Effect on homologous passive cutaneous anaphylaxis (PCA) reaction in rats.
This experimental animal model is caused by immediate type allergic reaction namely, antigen-antibody reaction. In the following, the method of this pharmacological test will be explained.
Method: Male wistar rats (9 weeks old) were intradermally administered 0.05 ml of anti-serum against dinitrophenylated ascaris (DNP-As) into two sites on the shaved dorsal skin. 48 hours later, 7-glycosyloxybenzopyran derivatives (test compounds) suspended in 0.5% sodium carboxymethylcellulose (CMCNa) were given orally at a dose of 50 mg/kg to the animals. One hour after administration of Test compounds, the animals were induced anaphylaxis by injection of saline (1 ml) dissolving 5 mg of Evans Blue and 1 mg of Trinitrophenylated ascaris (TNP-As) into the tail vein of the animals. 30 minutes after induction of anaphylaxis, animals were anesthetized by ether and killed by bleeding, and were flayed dorsal skin. The determination of extravasated dye was performed according to the method of Katayama et al. (Microbiol. Immunol., Vol.22, P 89-101, 1978). As vehicle control group, only 0.5% CMCNa solution was administered orally, and as positive control group, Tranilast suspended in 0.5% CMCNa was administered orally at a dose of 100 mg/kg to the animals with the same method as the test compounds groups. Each experimental group consisted of 5 rats. [formula]

[3] = system: experimental asthma model (airway resistance); assay: Effect on experimental asthma model in guinea pigs (airway resistance); type: in vivo, guinea pigs (male hartley); conditions: for inhibition in vivo at 50 mg/kg: po; for inhibition in vivo at 50 mg/kg / Inhibition (%) of the airway resistance: 50 mg/kg oral (TABLE 6)
Protocol: Effect on experimental asthma model in guinea pigs
The asthma is typical allergic disease and we carried out this pharmacological test by well known experimental asthma model in guinea pigs in order to comfirm that the compounds of the present invention suppress the asthma. In the following, the method of the pharmacological test will be explained.
Method: Male hartley guinea pigs were immunized by intraperitoneal injection of saline (1ml) containing 5 mg of ovalbumine (OVA) three times at interval of one week. 2 weeks after final immunization, the animals were challenged by inhalation of 1% OVA-saline solution for 1 minute and then the airway resistance of the animals were measured for 30 minutes with PULMOS-1 (Medical Interface Project Station Inc.) after the inhalation. The compounds of the present invention (test compounds) suspended in 0.5% CMCNa were given orally at a dose of 50 mg/kg. As positive control group, Disodium Cromoglicate (DSCG), well known anti-allergic agent, in saline were injected at a dose of 20 mg/kg into the vein of the animals. As vehicle control group, only 0.5% CMCNa solution were given orally. The inhibition (%) of the airway resistance in vehicle control group was calculated according to equation 5 and the result was shown in TABLE 6. Each experimental group consisted of 5 guinea pigs. [formula]
A: Maximum airway resistance in vehicle control group
B: Maximum airway resistance in test compounds group or positive control group

[4] = Mus musculus, po, 24 h, read-out: Inhibition (%) against the increase of ear thickness

Structure (SMILES)	inhibition in vivo at 50 mg/kg [1, 4]	inhibition in vivo at 50 mg/kg ([2]; Rattus norvegicus, po, 0.5 h)	inhibition in vivo at 50 mg/kg ([3]; Cavia porcellus, 0.5 h)	further results
CCCCCCCCCCCCOc1c(O)c2ccc(O[C@@H]3O[C@H](CO)[C@@H](O)[C@H](O)[C@H]3O)cc2oc1=O [compound 41]	60.1%	55.4%	70.2%	
COc1c(O)c(=O)oc2cc(O[C@@H]3O[C@H](CO)[C@@H](O)[C@H](O)[C@H]3O)ccc12 [compound 153]				Inhibition (%) against the increase of ear thickness [1]: 44.7%; Inhibition (%) of PCA reaction [2]: 42.4%; Inhibition (%) of the airway resistance [3]: 54.3%
CC1CCC(Oc2c(O)c(=O)oc3cc(O[C@H]4O[C@H](CO)[C@@H](O)[C@H](O)[C@@H]4O)ccc23)CC1 (some centres unmarked) [compound 136]	41.2%	42.2%	51.2%	
COc1c(O)c(=O)oc2cc(O[C@H]3O[C@H](CO)[C@@H](O)[C@H](O)[C@@H]3O)ccc12 [compound 131]	40.9%	41.2%	42.5%	
O=C(O)c1cc(=O)c2c(OCC(O)COc3cccc4oc(C(=O)O)cc(=O)c34)cccc2o1 [DSCG, Disodium Cromoglicate, reference compound]				inhibition in vivo at 20 mg/kg ([3]; Cavia porcellus, iv, 0.5 h, positive control DSCG, 20 mg/kg into the vein (TABLE 6)): 51.2%
CCCCCCCCOc1c(OCc2ccccc2)c2ccc(O[C@@H]3O[C@H](COCc4ccccc4)[C@@H](OCc4ccccc4)[C@H](OCc4ccccc4)[C@H]3OCc3ccccc3)cc2oc1=O [compound 35]	40.5%	42.2%	38.2%	
CCCCCCOc1c(O)c(=O)oc2cc(O[C@@H]3O[C@H](CO)[C@@H](O)[C@H](O)[C@H]3O)ccc12 [compound 19, 3-hydroxy-4-hexyloxy-7-(β-D-glucopyranosyloxy)-2H-1-benzopyran-2-one]	47.1%	44.9%	65.2%	
CCCCCCOc1c(O)c(=O)oc2cc(O[C@@H]3O[C@H](CO)[C@H](O)[C@H](O)[C@H]3O)ccc12 [compound 21, 3-hydroxy-4-hexyloxy-7-(β-D-galactopyranosyloxy)-2H-1-benzopyran-2-one]	48.9%	45.2%	63.1%	
CCCCOc1c(O)c2ccc(O[C@H]3O[C@H](CO)[C@@H](O)[C@H](O)[C@@H]3O)cc2oc1=O [compound 62]	49.3%	53.2%	50.1%	
CC(C)Oc1c(O)c2ccc(O[C@@H]3O[C@H](CO)[C@H](O)[C@H](O)[C@H]3O)cc2oc1=O [compound 91]	59.3%	55.5%	69.5%	
O=c1oc2cc(O[C@@H]3O[C@H](CO)[C@@H](O)[C@H](O)[C@H]3O)ccc2c(OCc2ccccc2)c1O [compound 118]				Inhibition (%) against the increase of ear thickness [1]: 43.5%; Inhibition (%) of PCA reaction [2]: 41.2%; Inhibition (%) of the airway resistance [3]: 45.3%
CC(=O)Oc1c(O)c2ccc(O[C@@H]3O[C@H](CO)[C@@H](O)[C@H](O)[C@H]3O)cc2oc1=O [compound 11, 3-acetoxy-4-hydroxy-7-(β-D-glucopyranosyloxy)-2H-1-benzopyran-2-one]	44.3%	43.2%	45.7%	
COc1c(O)c2ccc(O[C@@H]3O[C@H](CO)[C@@H](O)[C@H](O)[C@H]3O)cc2oc1=O [compound 3, 3-methoxy-4-hydroxy-7-(β-D-glucopyranosyloxy)-2H-1-benzopyran-2-one]	51.3%	53.1%	63.1%	
CCCCOc1c(O)c2ccc(O[C@@H]3O[C@H](CO)[C@@H](O)[C@H](O)[C@H]3O)cc2oc1=O [compound 37]	53.9%	55.1%	68.2%	
CCCCCCCCOc1c(O)c(=O)oc2cc(O[C@@H]3O[C@H](CO)[C@@H](O)[C@H](O)[C@H]3O)ccc12 [compound 22, 3-hydroxy-4-octyloxy-7-(β-D-glucopyranosyloxy)-2H-1-benzopyran-2-one]	47.3%	43.6%	60.6%	
CC1CCC(Oc2c(O)c3ccc(O[C@@H]4O[C@H](CO)[C@H](O)[C@H](O)[C@H]4O)cc3oc2=O)CC1 (some centres unmarked) [compound 92]	57.2%	58.9%	65.2%	
CCCCCCCCCCOc1c(O)c2ccc(O[C@@H]3O[C@H](CO)[C@H](O)[C@H](O)[C@H]3O)cc2oc1=O [compound 89]	62.3%	57.8%	77.3%	
CC(C)=CCC/C(C)=C/COc1c(O)c(=O)oc2cc(O[C@@H]3O[C@H](CO)[C@@H](O)[C@H](O)[C@H]3O)ccc12 [compound 117]	42.3%	40.3%	49.4%	
CC(C)Oc1c(O)c2ccc(O[C@@H]3O[C@H](CO)[C@@H](O)[C@H](O)[C@H]3O)cc2oc1=O [compound 42]	58.3%	56.4%	68.5%	
CCCCOc1c(O)c2ccc(O[C@@H]3O[C@H](CO)[C@H](O)[C@H](O)[C@H]3O)cc2oc1=O [compound 86]	59.4%	56.4%	73.2%	
CC1CCC(Oc2c(O)c3ccc(O[C@@H]4O[C@H](CO)[C@@H](O)[C@H](O)[C@H]4O)cc3oc2=O)CC1 (some centres unmarked) [compound 43]	55.4%	57.9%	70.7%	
CC(C)Oc1c(O)c(=O)oc2cc(O[C@@H]3O[C@H](CO)[C@@H](O)[C@H](O)[C@H]3O)ccc12 [compound 156]				Inhibition (%) against the increase of ear thickness [1]: 43.2%; Inhibition (%) of PCA reaction [2]: 42.1%; Inhibition (%) of the airway resistance [3]: 48.2%
C=COc1c(O)c2ccc(O[C@H]3O[C@H](CO)[C@@H](O)[C@H](O)[C@@H]3O)cc2oc1=O [compound 69]	49.9%	48.1%	59.3%	
O=c1oc2cc(O[C@@H]3O[C@H](CO)[C@@H](O)[C@H](O)[C@H]3O)ccc2c(O)c1O [compound 108]	42.4%	45.3%	50.1%	
COc1ccc(/C=C/C(=O)Nc2ccccc2C(=O)O)cc1OC [Tranilast, reference compound]				inhibition in vivo at 100 mg/kg ([1]; Mus musculus, po, 24 h, positive control Tranilast, 100 mg/kg oral, read-out: Inhibition (%) against the increase of ear thickness): 4.3%; inhibition of delayed type hypersensitization ([1]; Tranilast, 100 mg/kg oral): did not inhibit delayed type hypersensitization; inhibition in vivo at 100 mg/kg ([2]; Rattus norvegicus, po, 0.5 h, positive control, 100 mg/kg oral (TABLE 2)): 54.6%
C[C@]12C=CC(=O)C=C1CC[C@@H]1[C@@H]2[C@@H](O)C[C@@]2(C)[C@H]1CC[C@]2(O)C(=O)CO [Prednisolone, reference compound]				inhibition in vivo at 10 mg/kg [1, 4]: 63.7%
